Publication PMC6370995, “Phase I study of PF‐04895162, a Kv7 channel opener, reveals unexpected hepatotoxicity in healthy subjects, but not rats or monkeys: clinical evidence of disrupted bile acid homeostasis” (Pharmacology Research & Perspectives, 2019)
Like-named read-outs stand apart in the source and are kept apart here.

What was measured:
MRP3 = biological target: T1, MRP3 (Homo sapiens, UniProt O15438); experiment: MRP3 transporter inhibition in vesicles from HEK293 cells; assay type: biochemical
T1 construct: host or cells: membrane vesicles from HEK293 cells
T1 sequence (O15438 whole entry): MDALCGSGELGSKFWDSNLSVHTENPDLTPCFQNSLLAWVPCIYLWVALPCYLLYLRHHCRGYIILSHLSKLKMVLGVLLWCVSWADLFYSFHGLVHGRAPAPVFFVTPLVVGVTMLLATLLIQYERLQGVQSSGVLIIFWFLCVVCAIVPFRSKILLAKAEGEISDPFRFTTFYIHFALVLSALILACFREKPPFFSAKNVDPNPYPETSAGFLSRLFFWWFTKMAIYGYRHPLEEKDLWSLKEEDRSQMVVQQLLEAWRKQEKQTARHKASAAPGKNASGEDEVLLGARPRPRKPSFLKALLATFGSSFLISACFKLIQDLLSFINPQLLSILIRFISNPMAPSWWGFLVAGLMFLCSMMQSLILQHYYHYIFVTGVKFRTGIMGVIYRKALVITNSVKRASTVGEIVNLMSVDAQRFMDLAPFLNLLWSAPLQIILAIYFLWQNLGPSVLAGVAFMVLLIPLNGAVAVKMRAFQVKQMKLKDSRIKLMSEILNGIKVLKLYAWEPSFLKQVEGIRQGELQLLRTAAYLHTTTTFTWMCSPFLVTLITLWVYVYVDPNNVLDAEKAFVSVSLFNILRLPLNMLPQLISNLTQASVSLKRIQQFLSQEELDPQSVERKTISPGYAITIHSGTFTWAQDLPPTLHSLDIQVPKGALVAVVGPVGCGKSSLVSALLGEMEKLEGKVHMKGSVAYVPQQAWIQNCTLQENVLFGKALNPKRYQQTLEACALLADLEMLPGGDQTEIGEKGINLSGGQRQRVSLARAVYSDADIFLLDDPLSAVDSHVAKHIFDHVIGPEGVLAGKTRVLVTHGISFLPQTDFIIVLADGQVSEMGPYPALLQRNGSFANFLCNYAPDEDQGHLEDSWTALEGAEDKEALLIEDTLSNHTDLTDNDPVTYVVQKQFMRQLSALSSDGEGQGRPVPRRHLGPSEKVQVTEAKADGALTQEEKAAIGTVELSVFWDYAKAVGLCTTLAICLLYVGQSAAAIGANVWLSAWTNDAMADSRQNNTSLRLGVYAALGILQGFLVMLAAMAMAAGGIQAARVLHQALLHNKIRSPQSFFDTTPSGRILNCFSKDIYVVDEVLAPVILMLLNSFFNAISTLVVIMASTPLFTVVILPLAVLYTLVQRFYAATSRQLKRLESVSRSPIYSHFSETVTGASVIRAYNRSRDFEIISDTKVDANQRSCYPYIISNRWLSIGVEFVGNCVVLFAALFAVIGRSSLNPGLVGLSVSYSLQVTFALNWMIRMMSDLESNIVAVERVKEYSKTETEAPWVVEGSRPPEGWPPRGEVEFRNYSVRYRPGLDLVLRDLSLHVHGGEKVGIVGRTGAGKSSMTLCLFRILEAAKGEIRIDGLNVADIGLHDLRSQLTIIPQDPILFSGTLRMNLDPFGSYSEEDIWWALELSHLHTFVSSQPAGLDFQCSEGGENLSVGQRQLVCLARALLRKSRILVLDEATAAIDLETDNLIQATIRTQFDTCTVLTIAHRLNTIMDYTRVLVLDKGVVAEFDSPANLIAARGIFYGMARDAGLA
Excerpt: […]

[1] = test system: palmitate fatty acid oxidation; experiment: mitochondrial fatty acid oxidation inhibition using palmitate; assay type: biochemical; conditions: N = 2; read-out: IC50 for impaired palmitate fatty acid oxidation
Excerpt: […]

MDR3 = biological target: T2, MDR3 (Homo sapiens, UniProt P21439); experiment: MDR3 inhibition/activation in human hepatocytes (d9-choline to d9-phosphatidylcholine); assay type: cell-based; conditions: 200 μmol/L, N = 3
T2 construct: biotransformation of d 9‐choline to d 9‐phosphatidylcholine in human hepatocytes; host or cells: human hepatocytes
T2 sequence (P21439 whole entry): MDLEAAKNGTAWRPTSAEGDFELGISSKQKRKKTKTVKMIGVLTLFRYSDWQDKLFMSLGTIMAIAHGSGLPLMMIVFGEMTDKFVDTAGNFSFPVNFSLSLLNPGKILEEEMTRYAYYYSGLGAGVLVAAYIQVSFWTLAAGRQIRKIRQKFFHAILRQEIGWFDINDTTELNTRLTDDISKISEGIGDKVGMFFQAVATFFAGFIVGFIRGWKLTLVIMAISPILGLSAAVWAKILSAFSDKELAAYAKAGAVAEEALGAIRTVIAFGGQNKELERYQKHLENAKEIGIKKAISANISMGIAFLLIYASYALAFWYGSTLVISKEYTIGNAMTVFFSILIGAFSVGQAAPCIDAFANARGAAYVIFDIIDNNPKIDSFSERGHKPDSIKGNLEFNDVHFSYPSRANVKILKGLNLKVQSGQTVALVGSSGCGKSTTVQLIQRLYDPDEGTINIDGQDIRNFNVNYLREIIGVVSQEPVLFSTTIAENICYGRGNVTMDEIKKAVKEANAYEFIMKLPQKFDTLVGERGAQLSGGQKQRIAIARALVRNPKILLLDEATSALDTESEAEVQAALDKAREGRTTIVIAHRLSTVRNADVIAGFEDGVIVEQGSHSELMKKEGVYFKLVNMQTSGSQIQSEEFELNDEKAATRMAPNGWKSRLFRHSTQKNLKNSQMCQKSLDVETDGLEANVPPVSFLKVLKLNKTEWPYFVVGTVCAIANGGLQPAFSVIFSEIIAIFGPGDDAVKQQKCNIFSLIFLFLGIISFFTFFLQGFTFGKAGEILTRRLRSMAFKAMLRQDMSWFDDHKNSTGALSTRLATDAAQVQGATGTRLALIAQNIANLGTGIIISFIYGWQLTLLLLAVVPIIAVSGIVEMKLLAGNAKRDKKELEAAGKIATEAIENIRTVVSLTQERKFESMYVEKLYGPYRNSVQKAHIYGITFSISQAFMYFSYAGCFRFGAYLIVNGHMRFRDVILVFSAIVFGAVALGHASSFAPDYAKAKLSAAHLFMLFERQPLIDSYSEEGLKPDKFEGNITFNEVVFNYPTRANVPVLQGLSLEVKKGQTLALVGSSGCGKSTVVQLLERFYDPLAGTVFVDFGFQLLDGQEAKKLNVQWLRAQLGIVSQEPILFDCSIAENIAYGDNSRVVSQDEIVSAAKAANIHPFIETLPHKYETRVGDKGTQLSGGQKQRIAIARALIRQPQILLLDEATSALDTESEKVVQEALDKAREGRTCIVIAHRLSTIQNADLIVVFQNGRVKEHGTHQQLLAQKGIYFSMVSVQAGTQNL
Excerpt: […]

[2] = 6-Month Oral Toxicity Study in Sprague Dawley Rats; assay type: in vivo, rat; conditions: Sprague-Dawley, rat, plasma, oral
Protocol: (§1) In the longer-term studies Sprague-Dawley rats were administered PF-04895162 once daily for 28 days or 6 months at doses up to 100 mg/kg/day. […] The drug was well absorbed into the systemic circulation of male and female rats following oral administration for 6 months.

Sprague-Dawley rats [3] = experiment: 6-Month Oral Toxicity Study in Sprague Dawley Rats; assay type: in vivo, rat
Protocol: as §1

Sprague-Dawley rats [4] = experiment: Preliminary 7-Day Oral Toxicity Study in Rats; assay type: in vivo; conditions: for gross pathology: animals with impacted feces / microscopic changes in liver (and kidneys): 7 days; for gross pathology: animals with impacted feces: 10 M per group; for microscopic changes in liver (and kidneys): high-dose animals (300 mg/kg); for ALT: once daily for 7 days, 10 to 300 mg/kg/day PO
[5] = test system: liver mitochondrial function; experiment: mitochondrial state 3/4 respiration in the presence of glutamate/malate; assay type: biochemical; conditions: N = 2
Excerpt: […]

human hepatocytes = experiment: human hepatocyte imaging assay (cell loss); assay type: cell-based; conditions: 48 hours; three assessments in two human hepatocyte lots (LBN and HU4165)
Excerpt: […]

[6] = ADME of single oral dose of 14C-labeled parent in male rats; assay type: in vivo, rat; conditions: single oral dose (target 15 mg/kg) 14C-labeled
Excerpt: A summary of liver effects along with a detailed synopsis of each nonclinical study that was used to support the Investigational New Drug Application filing along with longer term studies can be found in the supplemental information associated with this article. In brief, this compound advanced into clinical studies without any histopathological evidence of liver injury or reproducible transaminase elevations in rats and monkeys. The addition of total bile acid analysis in nonclinical safety assessment studies, although germane to this investigation retrospectively, is not routine.26 Absorption, distribution, metabolism, and excretion of parent and metabolites were examined in albino and pigmented male rats after administration of a single oral dose (target 15 mg/kg) of ^14C‐labeled parent. Elimination of radioactivity occurred mostly within the first 24 hours after dosing with approximately 71 and 22% of the administered dose excreted in feces and urine, respectively. An equivalent human study was not performed.

[7] = 7-Day Oral Toxicity Study in Rats (twice daily dosing, GLP); assay type: in vivo; conditions: rat, in vivo, Day 7, 400 mg/kg/day
Sprague-Dawley rats [8] = experiment: as above; assay type: in vivo
NTCP = biological target: T3, NTCP (Homo sapiens, UniProt Q14973); experiment: NTCP uptake of tritium labeled TCA in CHO cells; assay type: cell-based; conditions: at 250 μmol/L
T3 construct: host or cells: CHO cells
T3 sequence (Q14973 1-349): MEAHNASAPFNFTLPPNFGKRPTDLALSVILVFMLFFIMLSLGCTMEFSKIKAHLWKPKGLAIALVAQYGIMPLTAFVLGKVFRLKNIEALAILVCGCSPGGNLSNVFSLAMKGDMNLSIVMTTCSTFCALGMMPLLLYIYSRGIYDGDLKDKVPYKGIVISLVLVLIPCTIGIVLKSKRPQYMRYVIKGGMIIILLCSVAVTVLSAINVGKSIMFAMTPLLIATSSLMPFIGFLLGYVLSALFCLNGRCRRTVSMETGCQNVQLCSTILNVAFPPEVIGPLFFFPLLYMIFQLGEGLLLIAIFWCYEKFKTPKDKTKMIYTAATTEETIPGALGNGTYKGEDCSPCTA
Excerpt: […]

[9] = 100, 200, and 400 mg/kg/day, 7 days
[10] = twice daily for 7 days, up to 400 mg/kg/day

O=C(Cc1ccc(F)cc1)Nn1c(C2CC2)nc2cc(F)ccc2c1=O [PF‐04895162, N‐(2‐cyclopropyl‐7‐fluoro‐4‐oxoquinazolin‐3(4H)‐yl)‐2‐(4‐fluorophenyl)ethanamide]
effect on MRP3 (MRP3): no inhibitory effect | IC50 [1]: ~70 µM | effect on MDR3 activity (MDR3): stimulation | Cmax ([2]; both sexes, 100 mg/kg/day, studies >1 month in duration, read-out: total Cmax concentrations in the rat (male-female)): 6.9 to 15.1 µM | Cmax ([2]; female, Day 1, 100 mg/kg/day, read-out: Total Cmax, female rats): 5350 ng/mL | Cmax ([2]; male, Day 1, 100 mg/kg/day, read-out: Total Cmax, male rats): 2460 ng/mL | liver weights (Sprague-Dawley rats [3]; 6 months, up to 100 mg/kg/day): Increased liver weights | deaths (Sprague-Dawley rats [3]; 10, 30 and 100 mg/kg/day, 6 months): no test-article related deaths | accumulation of parent drug / induction of drug metabolizing enzymes (Sprague-Dawley rats [3]; by the end of the 6 month study): no evidence of accumulation of parent drug or any apparent induction of drug metabolizing enzymes | Microscopic changes in liver (Sprague-Dawley rats [3]; females at 30 mg/kg/day and males and females at 100 mg/kg/day for 6 months): centrilobular hypertrophy | body temperature (Sprague-Dawley rats [3]; females only, Days 1 and 91 at 30 and 100 mg/kg/day): mild decrease in body temperature | Mean food consumption (Sprague-Dawley rats [3]; males and females at 100 mg/kg/day, entire 6-month period): less compared to controls | clinical chemistry changes (Sprague-Dawley rats [3]; males and/or females at 30 and/or 100 mg/kg/day): higher phosphorus, potassium, bilirubin, and cholesterol values and lower chloride and glucose levels | Mean body weights (Sprague-Dawley rats [3]; males at 30 and 100 mg/kg/day, females at 100 mg/kg/day): lower compared to controls | transaminases (Sprague-Dawley rats [3]; once daily for 6 months, up to 100 mg/kg/day): No transaminase elevations | gross pathology: animals with impacted feces (Sprague-Dawley rats [4]; 100 mg/kg): 1 | gross pathology: animals with impacted feces (Sprague-Dawley rats [4]; 300 mg/kg): 6 | body temperature (Sprague-Dawley rats [4]; 30, 100, and 300 mg/kg on Day 1 and 300 mg/kg on Day 7): decreased | Body weight gain (Sprague-Dawley rats [4]; Days 3, 5, and 7 at 30, 100, and 300 mg/kg): suppressed | clinical signs (Sprague-Dawley rats [4]; early in the study, primarily at 300 mg/kg): tremor, splayed stance, altered gait, piloerection, and mild tremors | microscopic changes in liver (and kidneys) (Sprague-Dawley rats [4]): no microscopic changes in the liver or kidneys | microscopic changes in liver (and kidneys) (Sprague-Dawley rats [4]; listed as PF-04895162): no microscopic changes in the liver | ALT (Sprague-Dawley rats [4]): dose-dependent increases in ALT | ALT (Sprague-Dawley rats [4]; listed as ICA-105665): increased in a dose-dependent manner | IC50 ([5]; read-out: IC50 for inhibition of glutamate/malate respiration): ~10 µM | IC50 ([5]; read-out: IC50 for uncoupling activity): > 100 µM | AC50 (human hepatocytes): > 125 µM | administered dose excreted in feces [6]: approximately 71% | administered dose excreted in urine [6]: ~22% | Cmax ([7]; female, read-out: Total Cmax (mean), female rats): 10300 ng/mL | Cmax ([7]; male, read-out: Total Cmax (mean), male rats): 7920 ng/mL | Clinical findings and body temperature (Sprague-Dawley rats [8]; [9]): test article-induced hypothermic condition | hematology parameters (Sprague-Dawley rats [8]; [9]): no adverse test article-related effects | mortality (Sprague-Dawley rats [8]; [9]): All main study animals survived to study termination | body weight and food consumption (Sprague-Dawley rats [8]; treated males and females): Decreases in body weight and food consumption | ALT (Sprague-Dawley rats [8]; [10]): did not reproduce ALT findings | liver weight (Sprague-Dawley rats [8]; [10]): increased liver weight in female rats | inhibition at 250 µM (NTCP): 30%
